Source: US5387709A, “Substituted sulfonamides, process of preparation and medicines containing same” (Lipha Lyonnaise Industrielle Pharmaceutique, priority 1990, dated 1995)

What was measured:
rat aorta = test: Inhibition of the U46619 induced rat aorta vasoconstriction; format: cell-based; conditions: Rattus norvegicus, contraction by U46619 (142 nM), rat thoracic aorta, 37° C.; read-out: VASOCONSTRICTION RAT AORTA IC 50
Protocol: (B) Inhibition of the U46619 induced rat aorta vasoconstriction:
male rats weighing about 300 g are put to death by euthanasia; the thoracic aorta is rapidly taken out. A sample of about 1 cm is cut into a spiral, and placed in a vat containing 20 ml of nutrient medium (Krebs-Henseleit) kept a 37° C. and oxygenated (O2 95%, CO2 5%). The contractions are recorded with an isotonic strain gauge. After a rest of 45 mn, supramaximum contractions are provoked by the addition of an analogue of TXA2 (U46619: 142 nM) to the survival medium. A plateau is generally reached after 10 mn of contact, the latter not exceeding 25 mn. A rest of 30 mn and a plurality of rinses take place after each contraction. The products are added 10 mn after U46619 and allowed to rest 15 mn, after which delay the inhibition is measured. The inhibitory concentration 50 (IC) is determined for each compound studied and on a minimum of 3 aortas. The activities of the compounds of the present invention are described in example 108.
(§1) The products of examples 1 to 107 have been tested for platelet aggregation on guinea-pig and on the contraction of the aorta in rat as described previously.

platelets of guinea-pig = test: Inhibition of the platelet aggregation induced by U46619 (BORN test), guinea-pig platelets; format: cell-based; conditions: Cavia porcellus, Platelet, read-out: PLATELET AGGREGATION GUINEA-PIG IC 50
From the text: (A) Inhibition of the platelet aggregation induced by U46619, a stable analogue of TXA2 (9,11-dideoxy-11α,9α-epoxymethanoprostaglandine F2 α):
The tests determine a concentration of compound which inhibits at 50% (CI50) a liminar aggregation induced by U46619. The activities of the compounds of the present invention are given in example 108.
as §1

IC50 (rat aorta) [nM] | IC50 (platelets of guinea-pig) [nM] | Structure (SMILES)
> 1000 | > 5000 | Cc1cnc2c(S(=O)(=O)NCC3(Cc4ccc(CC(=O)O)cc4)CCCC3)cccc2c1 [Example 66, 4-[[1-[[[(3-Methylquinol-8-yl)sulfonyl]amino]methyl]cyclopentyl]methyl]benzeneacetic acid]
280 | 1500 | O=C(O)Cc1ccc(CC2(CNS(=O)(=O)c3cccs3)CCCC2)cc1 [Example 67, 4-[[1-[[[(Thien-2-yl)sulfonyl]amino]methyl]cyclopentyl]methyl]benzeneaceticacid]
400 | 4000 | O=C(O)Cc1ccc(CC2(CNS(=O)(=O)c3ccc(Cl)s3)CCCC2)cc1 [Example 68, 4-[[1-[[[(5-Chlorothien-2-yl)sulfonyl]amino]methyl]cyclopentyl]methyl]benzeneacetic acid]
> 1000 | > 5000 | O=C(O)Cc1ccc(CC2(CNS(=O)(=O)c3c[nH]cn3)CCCC2)cc1 [Example 69, 4-[[1-[[[(Imidazol-4-yl)sulfonyl]amino]methyl]cyclopentyl]methyl]benzeneacetic acid]
1000 | > 5000 | O=C(O)Cc1ccc(CC2(CNS(=O)(=O)c3ccco3)CCCC2)cc1 [Example 70, 4-[[1-[[[(fur-2-yl)sulfonyl]amino]methyl]cyclopentyl]methyl]benzeneacetic acid]
40 | 3000 | O=C(O)Cc1ccc(CC2(CNS(=O)(=O)c3ccc(O)cc3)CCCC2)cc1 [Example 71, 4-[[1-[[[(4-Hydroxyphenyl)sulfonyl]amino]methyl]cyclopentyl]methyl]benzeneacetic acid]
40 | 640 | O=C(O)Cc1ccc(CC2(CNS(=O)(=O)c3ccc(Cl)cc3)CC2)cc1 [Example 72, 4-[[1-[[[(4-Chlorophenyl)sulfonyl]amino]methyl]cyclopropyl]methyl]benzeneacetic acid]
200 | 700 | O=C(O)Cc1ccc(CC2(CNS(=O)(=O)c3ccc(Cl)cc3)CCCCCC2)cc1 [Example 73, 4-[[1-[[[(4-Chlorophenyl]sulfonyl]amino]methyl]cycloheptyl]methyl]benzeneacetic acid]
> 1000 | > 5000 | O=C(Cc1ccc(CC2(CNS(=O)(=O)c3ccc(Cl)cc3)CCCC2)cc1)N1CCOCC1 [Example 74, 4-Chloro-N-[[1-[[4-[2-(morpholin-4-yl)-2-oxoethyl]phenyl]methyl]cyclopentyl]methyl]benzenesulfonamide]
> 1000 | > 5000 | NC(=O)Cc1ccc(CC2(CNS(=O)(=O)c3ccc(Cl)cc3)CCCC2)cc1 [Example 75, 4-[[1-[[[(4-Chlorophenyl)sulfonyl]amino]methyl]cyclopentyl]methyl]benzeneacetamide]
> 1000 | 2900 | O=C(O)CCNC(=O)Cc1ccc(CC2(CNS(=O)(=O)c3ccc(Cl)cc3)CCCC2)cc1 [Example 76, 3-[[2-[4-[[1-[[[(4-Chlorophenyl)sulfonyl]amino]methyl]cyclopentyl]methyl]phenyl]-1-oxoethyl]amino]propanoic acid]
> 1000 | 2400 | CCOC(=O)Cc1ccc(CC2(CNS(=O)(=O)c3ccc(Cl)cc3)CCCC2)cc1 [Example 77, Ethyl 4-[[1-[[[(4-chlorophenyl)sulfonyl]amino]methyl]cyclopentyl]methyl]benzeneacetate]
170 | 100 | CCN(CC)CCOC(=O)Cc1ccc(CC2(CNS(=O)(=O)c3ccc(Cl)cc3)CCCC2)cc1 [Example 79, 2-(Diethylamino)ethyl 4-[[1-[[[(4-Chlorophenyl)sulfonyl]amino]methyl]cyclopentyl]methyl]benzeneacetate]
190 | 2900 | O=S(=O)(O)Cc1ccc(CC2(CNS(=O)(=O)c3ccc(Cl)cc3)CCCC2)cc1 [Example 80, 4-[[1-[[[(4-Chlorophenyl)sulfonyl]amino]methyl]cyclopentyl]methyl]benzenemethanesulfonic acid]
60 | 1600 | O=S(=O)(NCC1(Cc2ccc(Cc3nnn[nH]3)cc2)CCCC1)c1ccc(Cl)cc1 [Example 81, 4-Chloro-N-[1-[[[4-[(1H-tetrazol-5-yl)methyl]phenyl]methyl]cyclopentyl]methyl]benzenesulfonamide]
1000 | 2000 | Nc1ccc(S(=O)(=O)NCC2(Cc3ccc(Cc4nnn[nH]4)cc3)CCCC2)cc1 [Example 82, 4-Amino-N-[1-[[[4-[(1H-tetrazol-5-yl)methyl]phenyl]methyl]cyclopentyl]methyl]benzenesulfonamide]

IC50 (rat aorta) [nM] | IC50 (platelets of guinea-pig) [nM] | Structure (SMILES)
1000 | 940 | O=P(O)(O)Cc1ccc(CC2(CNS(=O)(=O)c3ccc(Cl)cc3)CCCC2)cc1 [Example 83, [[4-[[1-[[[(4-Chlorophenyl)sulfonyl]amino]methyl]cyclopentyl]methyl]phenyl]methyl]phosphonic acid]
1000 | > 5000 | C[S+]([O-])c1ccc(S(=O)(=O)NCC2(Cc3ccc(CC(=O)O)cc3)CCCC2)cc1 (stereo not shown) [Example 84, 4-[[1-[[[(4-Methylsulfinylphenyl)sulfonyl]amino]methyl]cyclopentyl]methyl]benzeneacetic acid]
> 1000 | 1300 | CC(=O)Nc1ccc(S(=O)(=O)NCC2(Cc3ccc(CC(=O)O)cc3)CCCC2)cc1 [Example 85, 4-[[1-[[[(4-acetamidophenyl)sulfonyl]amino]methyl]cyclopentyl]methyl]benzeneacetic acid]
1000 | 510 | Nc1ccc(S(=O)(=O)NCC2(Cc3ccc(CC(=O)O)cc3)CCCC2)cc1 [Example 86, 4-[[1-[[[(4-Aminophenyl)sulfonyl]amino]methyl]cyclopentyl]methyl]benzeneacetic acid]
600 | 4000 | O=C(O)Cc1ccc(CC2(CNS(=O)(=O)c3ccc(Cl)cc3)CCCCC2)cc1 [Example 87, 4-[[1-[[[(4-Chlorophenyl)sulfonyl]amino]methyl]cyclohexyl]methyl]benzeneacetic acid]
1000 | 310 | O=C(O)Cc1ccc(CC2(CNS(=O)(=O)c3ccc(Cl)cc3)CCOCC2)cc1 [Example 88, 4-[[4-[[[(4-Chlorophenyl)sulfonyl]amino]methyl]tetrahydropyran-4-yl]methyl]benzeneacetic acid]
30 | 260 | CC1(C)CC(CNS(=O)(=O)c2ccc(Cl)cc2)(Cc2ccc(CC(=O)O)cc2)C1 [Example 89, 4-[[1-[[[(4-Chlorophenyl)sulfonyl]amino]methyl]-3,3-dimethylcyclobutyl]methyl]benzeneacetic acid]
> 1000 | > 5000 | CC1(C)C(C)(C)C1(CNS(=O)(=O)c1ccc(Cl)cc1)Cc1ccc(CC(=O)O)cc1 [Example 90, 4-[[1-[[[(4-Chlorophenyl)sulfonyl]amino]methyl]-2,2,3,3-tetramethylcyclopropyl]methyl]benzeneacetic acid]
1000 | 3100 | O=C(O)Cc1ccc(CC2(CNS(=O)(=O)c3ccc(Cl)cc3)CCC(=O)CC2)cc1 [Example 91, 4-[[1-[[[(4-Chlorophenyl)sulfonyl]amino]methyl]-4-oxocyclohexyl]methyl]benzeneacetic acid]
1000 | 370 | O=C(O)Cc1ccccc1CC1(CNS(=O)(=O)c2ccc(Cl)cc2)CCCC1 [Example 92, 2-[[1-[[[(4-Chlorophenyl)sulfonyl]amino]methyl]cyclopentyl]methyl]benzeneacetic acid]
50 | 1600 | O=C(O)Cc1cccc(CC2(CNS(=O)(=O)c3ccc(Cl)cc3)CCCC2)c1 [Example 93, 3-[[1-[[[(4-Chlorophenyl)sulfonyl]amino]methyl]cyclopentyl]methyl]benzeneacetic acid]
> 1000 | 1800 | CCCCCCc1ccc(S(=O)(=O)NCC2(Cc3ccc(CC(=O)O)cc3)CCCC2)cc1 [Example 94, 4-[[1-[[[(4 -Hexylphenyl)sulfonyl]amino]methyl]cyclopentyl]methyl]benzeneacetic acid]
280 | 570 | O=C(O)Cc1ccc(CC2(CNS(=O)(=O)c3ccc([N+](=O)[O-])cc3)CCCC2)cc1 [Example 95]
> 1000 | 750 | O=C(O)Cc1ccc(CC2(CNS(=O)(=O)c3cccc4ccccc34)CCCC2)cc1 [Example 96, 4-[[1-[[[(Naphthalen-1-yl)sulfonyl]amino]methyl]cyclopentyl]methyl]benzeneacetic acid]
> 1000 | 5900 | CCCCCCOc1ccc(S(=O)(=O)NCC2(Cc3ccc(CC(=O)O)cc3)CCCC2)cc1 [Example 97, 4-[[1-[[[(4-Hexyloxyphenyl)sulfonyl]amino]methyl]cyclopentyl]methyl]benzeneacetic acid]
320 | 250 | O=C(O)Cc1ccc(CC2(CNS(=O)(=O)c3ccccc3F)CCCC2)cc1 [Example 98, 4-[[1-[[[(2-Fluorophenyl)sulfonyl]amino]methyl]cyclopentyl]methyl]benzeneacetic acid]
